Where two headings read alike, the source gives them in different places.
Key:
[1] = system: HIF-1a; assay: Western blot model: HIF1-a stabilization in Hep3b cells under hypoxia; format: cell-based; conditions: hypoxia 1% O2, 6 hours; for Western Blot (range of decrease of HIF1-a stabilization): class symbol
Experimental: Since it was sought to determine the efficacy of the compounds to inhibit HIF1a stabilization under hypoxia, the compounds according to the invention underwent biochemical studies in order to determine their capacity to decrease HIF stabilization in Hep3b cells under hypoxia (western blot model).
Hep3B cells are seeded at a rate of 300000 cells per well in 6-wells culture plate in 2 ml of MEM supplemented with glutamin (2 mM) and 10% FCS (foetal calf serum) and incubated at 37° C. in the presence of 5% CO2. The next day, the cells are placed in contact with the compound and an incubation under hypoxia at 1% O2 is carried out at 37° C. in 95% humidity and 5% CO2 in a sealed anaerobic workstation (Hypoxystation H35-Don Whitley—AES Chemunex) during 6 hours.
Cells were washed (PBS) and lysed in SDS sample buffer. Proteins (25 μg) were separated on 4-12% Bis-Tris gels and transferred onto polyvinylidene difluoride membranes (Millipore). Membranes were blotted with a mouse monoclonal antibody to HIF-1a (BD transduction) and a mouse monoclonal anti-βactin (Sigma). Immunoreactive bands were detected with a horse radish peroxydase (HRP) anti-mouse antibody (Sigma) by enhanced chemiluminescence (Promega).
The inhibitory activity of the compounds for their capacity to decrease HIF1-a stabilization in Hep3b under hypoxia is expressed as range of percentage relative to control with: […]

[2] = system: mitochondrial ATP production on non-small cell lung carcinoma cell lines NCI-H460; assay: Mitochondrial ATP analysis (Cell Titer Glo) in NCI-H460 cells; format: cell-based; conditions: 1-hour incubation, with sodium iodoacetate (100 μM), concentration inhibiting 50% of mitochondrial ATP production, read-out: IC50 (mito ATP)
Experimental: In order to evaluate the inhibitory activity of the all compounds, an in vitro assay was developed which read out is directly linked to mitochondrial complex 1 inhibition. Since mitochondrial complex 1 contributes to the formation of membrane potential coupled to the mitochondrial ATP synthesis, complex 1 inhibition directly leads in cells to the inhibition of mitochondrial ATP production. Cellular ATP contents were measured in presence of either glycolysis inhibitor (sodium iodocetate) and/or mitochondrial inhibitors (F0F1-ATPase inhibitor: oligomycin or mitochondrial uncoupler: FCCP) to determine the ATP production part relying either on glycolytic or on mitochondrial metabolism.
Mitochondrial ATP Analysis
The compounds of the invention were evaluated for their ability to inhibit mitochondrial
ATP was measured using the Promega Cell Titer Glo kit and protocol. In summary, 1,000 cells were plated in 40 μL in a 384 well plate. 24 hours later, medium was replaced by 20 μl culture medium in presence of compounds: cells were treated in replicates of five with control (PBS), oligomycin A (10 μg/ml), FCCP (30 μM), or the compounds of the invention in dose effect both alone or in combination with sodium iodoacetate (100 μM). Following a 1-hour incubation, 20 μL of CellTtiter-glo™ reaction mix were added to each well for a final volume of 40 μL. Plates were then analyzed for luminescence with a Perkin Elmer EnVision. By comparing the different conditions, global ATP and percentages of both glycolytic and mitochondrial ATP were determined.
The mitochondrial ATP production was calculated as the remaining ATP under iodoacetate treatment minus basal ATP (ATP content under iodoacetate and oligomycin treatment). Inhibitory activity of the compounds on mitochondrial ATP in NCI-H460 cells is expressed as the concentration needed to inhibit 50% of mitochondrial ATP production (IC50, M).

IC50 [2]	IC50 ([2]; Homo sapiens, NCI-H460, 1 h)	SMILES	Western Blot (decrease of HIF1-a stabilization, percentage relative to control) [1]	Western Blot (range of decrease of HIF1-a stabilization) [1]
195 nM		COc1ccc(C(O)COc2ccc(-c3csc(-c4ccc(OCC(O)c5ccc(OC)c(OC)c5)cc4)n3)cc2)cc1OC (single isomer, unassigned) [Compound I-25, 1-(3,4-dimethoxyphenyl)-2-[4-[2-[4-[2-(3,4-dimethoxyphenyl)-2-hydroxy-ethoxy]phenyl]thiazol-4-yl]phenoxy]ethanol]	41%	* (* represents a decrease of HIF-a stabilization between 30 to 50%)
159 nM		COc1ccc(C(O)C(C)Oc2ccc(-c3csc(-c4ccc(OC(C)C(O)c5ccc(OC)c(OC)c5)cc4)n3)cc2)cc1OC (single isomer, unassigned) [Compound I-29, 1-(3,4-dimethoxyphenyl)-2-[4-[2-[4-[2-(3,4-dimethoxyphenyl)-2-hydroxy-1-methyl-ethoxy]phenyl]thiazol-4-yl]phenoxy]propan-1-ol]	67%	** (** represents a decrease of HIF-a stabilization between 50 to 70%)
167 nM		COc1ccc(C(O)C(C)Oc2ccc(-c3csc(-c4ccc(OC(C)C(O)c5ccc(OC)c(OC)c5)cc4)n3)cc2)cc1OC (single isomer, unassigned) [Compound I-30, 1-(3,4-dimethoxyphenyl)-2-[4-[2-[4-[2-(3,4-dimethoxyphenyl)-2-hydroxy-1-methyl-ethoxy]phenyl]thiazol-4-yl]phenoxy]propan-1-ol]	56%	** (** represents a decrease of HIF-a stabilization between 50 to 70%)
300 nM		COc1ccc(C(O)C(C)Oc2ccc(-c3csc(-c4ccc(OC(C)C(O)c5ccc(OC)c(OC)c5)cc4)n3)cc2)cc1OC (single isomer, unassigned) [Compound I-31, 1-(3,4-dimethoxyphenyl)-2-[4-[2-[4-[2-(3,4-dimethoxyphenyl)-2-hydroxy-1-methyl-ethoxy]phenyl]thiazol-4-yl]phenoxy]propan-1-ol]	64%	** (** represents a decrease of HIF-a stabilization between 50 to 70%)
47.6 nM		COc1ccc(C(O)C(C)Oc2ccc(-c3csc(-c4ccc(OC(C)C(O)c5ccc(OC)c(OC)c5)cc4)n3)cc2)cc1OC (single isomer, unassigned) [Compound I-32, 1-(3,4-dimethoxyphenyl)-2-[4-[2-[4-[2-(3,4-dimethoxyphenyl)-2-hydroxy-1-methyl-ethoxy]phenyl]thiazol-4-yl]phenoxy]propan-1-ol]	45%	* (* represents a decrease of HIF-a stabilization between 30 to 50%)
30.1 nM		COc1ccc(C(O)C(C)Oc2ccc(-c3csc(-c4ccc(OC(C)C(O)c5ccc(OC)c(OC)c5)cc4)n3)cc2)cc1OC (single isomer, unassigned) [Compound I-33, 1-(3,4-dimethoxyphenyl)-2-[4-[2-[4-[2-(3,4-dimethoxyphenyl)-2-hydroxy-1-methyl-ethoxy]phenyl]thiazol-4-yl]phenoxy]propan-1-ol]	52%	* (* represents a decrease of HIF-a stabilization between 30 to 50%)
	94.3 nM	COc1ccc(C(O)C(C)(C)Oc2ccc(-c3noc(-c4ccc(OC(C)(C)C(O)c5ccc(OC)c(OC)c5)cc4)n3)cc2)cc1OC (single isomer, unassigned) [Compound I-37, 1-(3,4-dimethoxyphenyl)-2-[4-[5-[4-[2-(3,4-dimethoxyphenyl)-2-hydroxy-1,1-dimethyl-ethoxy]phenyl]-1,2,4-oxadiazol-3-yl]phenoxy]-2-methyl-propan-1-ol]	74%	*** (*** represents a decrease of HIF-a stabilization higher than 70%)

Source: US20170313674A1, “BENZYLHYDROXIDE DERIVATIVES, PREPARATION THEREOF AND THERAPEUTIC USE THEREOF” (SANOFI, priority 2014, published 2017)
